# Experimental data from patent US6512006B1, “HIV protease inhibitors” (Warner-Lambert Company, priority 1999, dated 2003).
# Assays:
# [1] = target: HIV protease enzyme (Human immunodeficiency virus type 1 group M subtype B, UniProt P04585); assay: IC50s measured in vitro against HIV protease enzyme at pH 4.7 and 6.2
# [2] = target: T1, Recombinant HIV-1 protease (Human immunodeficiency virus type 1 group M subtype B, UniProt P04585); assay: HIV Protease Assay (Ki); type: biochemical; conditions: Inhibition of HIV Protease Ki, pH 6.2, 37° C., 40 μM substrate III
# T1 construct: Recombinant HIV-1 protease (>96% purity); purchased Bachem Bioscience, Inc. (King of Prussia, Pa.)
# Procedure: Recombinant HIV-1 protease (>96% purity) and HIV protease substrate III (the undecapeptide H-His-Lys-Ala-Arg-Val-Leu-Nph-Glu-Ala-Nle-Ser-NH2, 97% purity) were purchased from Bachem Bioscience, Inc. (King of Prussia, Pa.).
# The methods employed follow the procedures of Tummino, et al., Archives of Biochemistry and Biophysics, 1995;316:523). […] (total volume, […]). […] The final inhibitor concentrations used were 0 (0.1, 0.2, in some experiments), 0.5, 1, 2, 5, 10, 20, 50, and 100 μM. The solution was mixed, incubated for 5 minutes and the reaction quenched by addition of trifluoracetic acid, 2% final. The (leu-p-nitro-phe) bond of the substrate is cleaved by the enzyme and substrate and products separated by reverse-phase HPLC (high pressure liquid chromatography). Absorbance was measured at 220 nm, peak areas determined, and percentage conversion to product used to calculate percentage control (=[% conversion (+inhibitor)/% conversion (−inhibitor)]×100).
# Ki means inhibitory constant; it approximately the equilibrium binding constant for the binding of the inhibitor to the free enzyme.
# [3] = tested on: HIV infected lymphocyte derived CEM cells; assay: Cellular Infection Assay, XTT cytopathic procedure in CEM cells (antiviral efficacy); type: cell-based; conditions: Human immunodeficiency virus 1, CCRF-CEM, read-out: Antiviral Efficacy EC50, CEM cells, 50% protection against HIV cytopathic effects
# Procedure: Compounds were tested in lymphocyte derived CEM cells using the XTT cytopathic procedures and were performed at Southern Research Institute (Buckheit, et al., Antiviral Res., 1993;21:247; see also Weislow, et al., J. Nat. Cancer Inst., 1989;81:577). Compound concentrations were 0.32, 1, 3.2, 10, 32, and 100 μM. The EC50 represents the concentration of agent, which reduces HIV cytopathic effects 50% relative to untreated control. Cellular toxicity of the agents are estimated from the TC50 which represents the concentration of the agent which inhibits 50% of the viability of uninfected cells.
# EC50 indicates the concentration of the drug which provide 50% protection against HIV.
# [4] = Cellular toxicity in uninfected CEM cells (XTT); type: cell-based; conditions: human, uninfected CEM cells (lymphocyte derived), cytotoxicity in 50% of uninfected CEM cells; read-out: TC50 (the source's name)
# Procedure: Compound concentrations were 0.32, 1, 3.2, 10, 32, and 100 μM.
Structure (SMILES),melting point [°C],other results
CCCCN(C1=C(O)CC(CCc2cccc(O)c2)(C2CCCC2)OC1=O)c1ccccc1 (stereo not drawn),64 to 66,–
CCCN(C1=C(O)CC(CCc2ccccc2)(C(C)C)OC1=O)c1ccccc1 (stereo not drawn),160 to 162,–
CCCN(C1=C(O)CC(CCc2ccc(O)cc2)(C2CCCC2)OC1=O)c1ccccc1 (stereo not drawn),95,–
O=C1OC(CCc2cccc(O)c2)(C2CCCC2)CC(O)=C1N(c1ccccc1)c1ccccc1 (stereo not drawn),90 to 92,–
CC(C)C1(CCc2ccc(O)cc2)CC(O)=C(N(c2ccccc2)C2CCCCC2)C(=O)O1 (stereo not drawn),104 to 106,–
CC(C)C1(CCc2ccc(O)cc2)CC(O)=C(N(c2ccccc2)C2CCCC2)C(=O)O1 (stereo not drawn),83 to 85,–
CCCN(C1=C(O)CC(C)(CCc2ccc(O)cc2)OC1=O)c1ccccc1 (stereo not drawn),179 to 181,–
CCCCC1(CCc2ccc(O)cc2)CC(O)=C(N(CCC)c2ccccc2)C(=O)O1 (stereo not drawn),58 to 60,–
CCCN(C1=C(O)CC(CCc2ccc(O)cc2)(C2CC2)OC1=O)c1ccccc1 (stereo not drawn),74 to 75,–
CC(C)N(C1=C(O)CC(CCc2ccc(O)cc2)(C(C)C)OC1=O)c1ccccc1 (stereo not drawn),75 to 77,–
Cc1ccc(C(C)(C)C)c(Sc2c(O)cc(-c3ccccc3)oc2=O)c1,–,IC50 ([1]; pH (4.7)): 28 nM; IC50 ([1]; pH (6.2)): 280 nM
Cc1ccc(C(C)(C)C)c(SC2=C(O)CC(CCc3ccccc3)(c3ccccc3)OC2=O)c1 (stereo not drawn),–,IC50 ([1]; pH (4.7)): 10 nM; IC50 ([1]; pH (6.2)): 35 nM
CCCCN(C1=C(O)CC(CCc2ccc(O)cc2)(C(C)C)OC1=O)c1ccccc1 (stereo not drawn) [15],69 to 71,–
"CCCN(C1=C(O)CC(CCc2ccccc2)(C(C)C)OC1=O)c1cccc(NS(=O)(=O)c2ccc(C(F)(F)F)cn2)c1 (stereo not drawn) [Example 1, 5-Trifluoromethyl-pyridine-2-sulfonic acid {3-[(4-hydroxy-6-isopropyl-2-oxo-6-phenethyl-5,6-dihydro-2H-pyran-3-yl)-propyl-amino]-phenyl}-amide]",–,Ki [2]: 0.029 nM; EC50 [3]: 700 nM; CC50 [4]: 63000 nM
"CCN(C1=C(O)CC(CCc2ccccc2)(C(C)C)OC1=O)c1cccc(NS(=O)(=O)c2ccc(C(F)(F)F)cn2)c1 (stereo not drawn) [Example 3, 5-Trifluoromethyl-pyridine-2-sulfonic acid {3-[ethyl-(4-hydroxy-6-isopropyl-2-oxo-6-phenethyl-5,6-dihydro-2H-pyran-3-yl)-amino]-phenyl}-amide]",–,Ki [2]: 0.96 nM; EC50 [3]: 1100 nM; CC50 [4]: 66000 nM
"CCCN(C1=C(O)CC(CCc2ccc(O)cc2)(C(C)C)OC1=O)c1cccc(NS(=O)(=O)c2ccc(C(F)(F)F)cn2)c1 (stereo not drawn) [Example 4, 5-Trifluoromethyl-pyridine-2-sulfonic acid [3-({4-hydroxy-6-[2-(4-hydroxy-phenyl)-ethyl]-6-isopropyl-2-oxo-5,6-dihydro-2H-pyran-3-yl}-propyl-amino)-phenyl]-amide]",–,Ki [2]: 0.01 nM; EC50 [3]: 1100 nM; CC50 [4]: 84000 nM
"CCCC1(CCc2ccc(O)cc2)CC(O)=C(N(CC)c2cccc(NS(=O)(=O)c3ccc(C(F)(F)F)cn3)c2)C(=O)O1 (stereo not drawn) [Example 5, 5-Trifluoromethyl-pyridine-2-sulfonic acid [3-(ethyl-{4-hydroxy-6-[2-(4-hydroxy-phenyl)-ethyl]-2-oxo-6-propyl-5,6-dihydro-2H-pyran-3-yl}-amino)-phenyl]-amide]",–,Ki [2]: 0.17 nM; EC50 [3]: 1300 nM; CC50 [4]: 113000 nM
"CCN(C1=C(O)CC(CCc2ccc(O)cc2)(C(C)C)OC1=O)c1cccc(NS(=O)(=O)c2ccc(C(F)(F)F)cn2)c1 (stereo not drawn) [Example 6, 5-Trifluoromethyl-pyridine-2-sulfonic acid [3-(ethyl-{4-hydroxy-6-[2-(4-hydroxy-phenyl)-ethyl]-6-isopropyl-2-oxo-5,6-dihydro-2H-pyran-3-yl}-amino)-phenyl]-amide]",–,Ki [2]: 0.44 nM; EC50 [3]: 1300 nM; CC50 [4]: 133000 nM
"CCCN(C1=C(O)CC(CCc2ccc(O)cc2)(C(C)C)OC1=O)c1ccccc1 (stereo not drawn) [Example 7, 4-Hydroxy-6-[2-(4-hydroxy-phenyl)-ethyl]-6-isopropyl-3-(phenyl-propyl-amino)-5,6-dihydro-pyran-2-one]",171 to 173,Ki [2]: 0.13 nM; EC50 [3]: 1300 nM; CC50 [4]: 200000 nM
"CCCN(C1=C(O)CC(CCc2cccc(O)c2)(C2CCCC2)OC1=O)c1ccccc1 (stereo not drawn) [Example 8, 6-Cyclopentyl-4-hydroxy-6-[2-(3-hydroxy-phenyl)-ethyl]-3-(phenyl-propyl-amino)-5,6-dihydro-pyran-2-one]",74 to 76,Ki [2]: 0.35 nM; EC50 [3]: 1300 nM; CC50 [4]: 67000 nM
"CCCN(C1=C(O)CC(CCc2ccccc2CO)(C(C)C)OC1=O)c1ccccc1 (stereo not drawn) [Example 9, 4-Hydroxy-6-[2-(2-hydroxymethyl-phenyl)-ethyl]-6-isopropyl-3-(phenyl-propyl-amino)-5,6-dihydro-pyran-2-one]",58 to 60,Ki [2]: 2 nM; EC50 [3]: 1400 nM; CC50 [4]: 101000 nM
"CCCCN(C1=C(O)CC(CCc2ccc(O)cc2)(C(C)C)OC1=O)c1ccccc1 (stereo not drawn) [Example 13, 3-(Butyl-phenyl-amino)-4-hydroxy-6-[2-(4-hydroxy-phenyl)-ethyl]-6-isopropyl-5,6-dihydro-pyran-2-one]",196 to 198,Ki [2]: 0.2 nM; EC50 [3]: 1500 nM; CC50 [4]: 156000 nM
"CC(C)C1(CCc2ccc(O)cc2)CC(O)=C(N(CCC#N)c2ccccc2)C(=O)O1 (stereo not drawn) [Example 21, 3-({4-Hydroxy-6-[2-(4-hydroxy-phenyl)-ethyl]-6-isopropyl-2-oxo-5,6-dihydro-2H-pyran-3-yl}-phenyl-amino)-propionitrile]",119 to 121,Ki [2]: 1.6 nM; EC50 [3]: 2700 nM; CC50 [4]: 320000 nM
CCCN(C1=C(O)CC(CCc2ccccc2)(C(C)C)OC1=O)c1ccccc1 (stereo not drawn) [drawing 7],–,IC50 ([1]; pH (4.7)): 4 nM; IC50 ([1]; pH (6.2)): 4 nM

# Now from value to compound, other results behind:
melting point [°C],Structure (SMILES),other results
85 to 87,CCCN(C1=C(O)CC(CCc2ccc(O)cc2)(C(C)C)OC1=O)c1cccc(NS(=O)(=O)c2cccs2)c1 (stereo not drawn),–
104 to 106,CCCN(C1=C(O)CC(CCc2ccc(O)cc2)(C2CCCC2)OC1=O)c1cccc(NS(=O)(=O)c2ccc(C(F)(F)F)cn2)c1 (stereo not drawn),–
170 to 172,CCCN(C1=C(O)CC(CCc2ccc(N)cc2)(C(C)C)OC1=O)c1cccc(NS(=O)(=O)c2ccc(C(F)(F)F)cn2)c1 (stereo not drawn),–
83 to 85,CC(C)C1(CCc2ccc(O)cc2)CC(O)=C(N(c2ccccc2)c2ccccc2)C(=O)O1 (stereo not drawn),–
96 to 98,CCCN(C1=C(O)CC(CCc2ccc(O)cc2)(C(C)C)OC1=O)c1cccc(C(=O)OC)c1 (stereo not drawn),–
86 to 88,CCCN(C1=C(O)CC(CCc2ccc(O)cc2)(C(C)C)OC1=O)c1cc(Cl)cc(Cl)c1 (stereo not drawn),–
53 to 55,CCCN(C1=C(O)CC(CCc2ccsc2)(C(C)C)OC1=O)c1ccccc1 (stereo not drawn),–
63 to 65,CCN(C1=C(O)CC(CCc2ccc(O)cc2)(C(C)C)OC1=O)c1ccccc1 (stereo not drawn),–
95 to 96,COc1ccc(N(C2=C(O)CC(CCc3ccc(O)cc3)(C(C)C)OC2=O)c2ccccc2)cc1 (stereo not drawn),–
95 to 97,CC(C)C1(CCc2ccc(O)cc2)CC(O)=C(N(c2ccccc2)c2cccc(O)c2)C(=O)O1 (stereo not drawn),–
85 to 86,CC(C)C1(CCc2ccc(O)cc2)CC(O)=C(N(CCO)c2ccccc2)C(=O)O1 (stereo not drawn),–
93 to 95,CCCN(C1=C(O)CC(CCc2ccc3c(c2)OCO3)(C(C)C)OC1=O)c1ccccc1 (stereo not drawn),–
70 to 72,CC(C)CCN(C1=C(O)CC(CCc2ccc(O)cc2)(C(C)C)OC1=O)c1ccccc1 (stereo not drawn),–
102 to 104,CC(C)C1(CCc2ccc(O)cc2)CC(O)=C(N(c2ccccc2)C2CC2)C(=O)O1 (stereo not drawn),–
93 to 96,CCCN(C1=C(O)CC(CCc2ccc(O)cc2)(C(C)C)OC1=O)c1cccc2c(O)cccc12 (stereo not drawn),–
97 to 99,CCN(C1=C(O)CC(CCc2ccc(O)cc2)(C(C)C)OC1=O)c1ccc2ccccc2c1 (stereo not drawn),–
86 to 88,CCN(C1=C(O)CC(CCc2ccc(O)cc2)(C(C)C)OC1=O)c1cccc2ccccc12 (stereo not drawn),–
75 to 77,CC(C)C1(CCc2ccc(O)cc2)CC(O)=C(N(Cc2ccccc2)c2ccccc2)C(=O)O1 (stereo not drawn),–
61 to 63,CCCN(C1=C(O)CC(CCc2ccc(O)cc2)(C(C)C)OC1=O)c1cccc(CO)c1 (stereo not drawn) [19],–
71 to 73,CCCN(C1=C(O)CC(CCc2ccc(O)cc2)(C(C)C)OC1=O)c1cccc(CO)c1 (stereo not drawn) [32],–
